{
  "source": "patent US9012431B2",
  "about": "“Boron-containing small molecules as anti-inflammatory agents” (Anacor Pharmaceuticals, Inc., priority 2008, dated 2015)",
  "key": {"[1]": {"system": "T1, PDE4 partially purified from human U-937 myeloid leukemia cells", "T1 construct": "PDE4 partially purified from human U-937 myeloid leukemia cells was used", "assay": "PDE4 Assay (enzyme from U-937 cells, [3H]cAMP)", "format": "biochemical", "details": "PDE4 from U-937 cells, Tris buffer pH 7.5, 20 minutes at 25° C.", "protocol": "Test article and/or vehicle was incubated with 0.2 mg enzyme and 1 mM cAMP containing 0.01 mM [3H]cAMP in Tris buffer pH 7.5 for 20 minutes at 25° C. The reaction was terminated by boiling for 2 minutes and the resulting AMP is converted to adenosine by addition of 10 mg/ml snake venom nucleotidase and further incubation at 37° C. for 10 minutes. Unhydrolyzed cAMP is bound to AG1-X2 resin, and remaining [3H]Adenosine in the aqueous phase is quantitated by scintillation counting."}, "IFN-γ": {"system": "IFN-γ", "assay": "Cytokine assay, IFN-γ release from PBMC", "format": "cell-based", "details": "human PBMC, 20 ug/mL PHA; for pIC50: supernatant at 24 hours; for inhibition at 10 µM: 24 hours", "protocol": "(§1) The ability of the compounds described herein to inhibit pro-inflammatory cytokines or phsophodiesterases were tested.\n(§2) Frozen human peripheral blood mononucleocytes (PBMC) were thawed and centrifuged. Cryopreservation media was aspirated off of the cell pellet, and the cells were resuspended in fresh culture media (CM) comprising RPMI 1640 and 10% FBS in 96 well plates. Test article was dissolved in DMSO to form a 10 mM sample (DMSO, 100%). The 10 mM samples were diluted to 100 μM in CM (DMSO, 1%), then further diluted to 10, 1, 0.1, 0.01 μM in 200 μL of CM (n=3). […] IL-23 was assayed using a commercial ELISA kit (R&D Systems)."}, "IL-2": {"system": "IL-2", "assay": "Cytokine assay, IL-2 release from PBMC", "format": "cell-based", "details": "human PBMC, 20 ug/mL PHA; for pIC50: supernatant at 24 hours; for inhibition at 10 µM: 24 hours", "protocol": "as §1, §2"}, "TNF-α": {"system": "TNF-α", "assay": "Cytokine assay, TNF-α release from PBMC", "format": "cell-based", "details": "1 μg/mL LPS; for pIC50: Homo sapiens, PBMC, 24 h, supernatant at 24 hours", "protocol": "as §1, §2"}, "IL-5": {"system": "IL-5", "assay": "Cytokine assay, IL-5 release from PBMC", "format": "cell-based", "details": "human PBMC, 20 ug/mL PHA; for pIC50: supernatant at 48 hours; for inhibition at 10 µM: 48 hours", "protocol": "as §1, §2"}, "IL-10": {"system": "IL-10", "assay": "Cytokine assay, IL-10 release from PBMC", "format": "cell-based", "details": "human PBMC, 20 ug/mL PHA; for pIC50: supernatant at 48 hours; for inhibition at 10 µM: 48 hours", "protocol": "as §1, §2"}},
  "note": "pIC50: −log10 of the molar value.",
  "data": [
    {"smiles": "CC(C)(C)/[N+]([O-])=C/c1ccc(Oc2ccc3c(c2)COB3O)nc1", "note": "[D70, (Z)—N-((6-(1-hydroxy-1,3-dihydrobenzo[c][1,2]oxaborol-5-yloxy)pyridin-3-yl)methylene)-2-methylpropan-2-amine oxide]", "values": [
      {"measurement": "pIC50", "setting": "[1]", "value": "5.40 to 6.00"},
      {"measurement": "pIC50", "setting": "IFN-γ", "value": "5.40 to 6.00"},
      {"measurement": "pIC50", "setting": "IL-2", "value": "> 6.00"},
      {"measurement": "pIC50", "setting": "TNF-α", "value": "5.40 to 6.00"}
    ]},
    {"smiles": "O=C(O)c1cnc(Oc2ccc3c(c2)COB3O)c(Cl)c1", "note": "[D49, 5-Chloro-6-(1-hydroxy-1,3-dihydrobenzo[c][1,2]oxaborol-5-yloxy)nicotinic acid]", "values": [
      {"measurement": "pIC50", "setting": "[1]", "value": "5.40 to 6.00"},
      {"measurement": "pIC50", "setting": "IFN-γ", "value": "5.00 to 5.40"},
      {"measurement": "pIC50", "setting": "IL-2", "value": "5.00 to 5.40"},
      {"measurement": "pIC50", "setting": "TNF-α", "value": "5.00 to 5.40"}
    ]},
    {"smiles": "CCOC(=O)c1ccc(Oc2ccc3c(c2)COB3O)c(OC2CCCC2)c1", "note": "[D21, 5-[4-Ethoxycarbonyl-2-(cyclopentyloxy)phenoxy]-1,3-dihydro-1-hydroxy-2,1-benzoxaborole]", "values": [
      {"measurement": "pIC50", "setting": "[1]", "value": "> 6.00"},
      {"measurement": "pIC50", "setting": "IFN-γ", "value": "> 6.00"},
      {"measurement": "pIC50", "setting": "IL-2", "value": "> 6.00"},
      {"measurement": "pIC50", "setting": "TNF-α", "value": "5.40 to 6.00"}
    ]},
    {"smiles": "CN(C)CCNC(=O)c1ccc(Oc2ccc3c(c2)COB3O)cc1", "note": "[D81, N-(2-Dimethylamino-ethyl)-4-(1-hydroxy-1,3-dihydro-benzo[c][1,2]oxaborol-5-yloxy)-benzamide]", "values": [
      {"measurement": "pIC50", "setting": "IFN-γ", "value": "< 5.00"},
      {"measurement": "pIC50", "setting": "IL-5", "value": "5.00 to 5.40"},
      {"measurement": "pIC50", "setting": "IL-2", "value": "< 5.00"},
      {"measurement": "pIC50", "setting": "TNF-α", "value": "< 5.00"},
      {"measurement": "pIC50", "setting": "IL-10", "value": "< 5.00"}
    ]},
    {"smiles": "C[NH+]1CCN(C(=O)COc2cc(Oc3ccc4c(c3)COB4O)ccc2C#N)CC1", "note": "[D43, 4-(1-Hydroxy-1,3-dihydro-benzo[c][1,2]oxaborol-5-yloxy)-2-[2-(4-methyl-piperazin-1-yl)-2-oxo-ethoxy]-benzonitrile hexafluorophosphate]", "values": [
      {"measurement": "inhibition at 10 µM", "setting": "IFN-γ", "value": "60 to 90", "unit": "%"},
      {"measurement": "inhibition at 10 µM", "setting": "IL-5", "value": "60 to 90", "unit": "%"},
      {"measurement": "inhibition at 10 µM", "setting": "IL-2", "value": "90 to 100", "unit": "%"},
      {"measurement": "inhibition at 10 µM", "setting": "TNF-α; human PBMC, 24 hours, 10 μM", "value": "< 30", "unit": "%"},
      {"measurement": "inhibition at 10 µM", "setting": "IL-10", "value": "60 to 90", "unit": "%"}
    ]},
    {"smiles": "CN1CCN(C(=O)c2ccc(Oc3ccc4c(c3)COB4O)cc2)CC1", "note": "[D79, [4-(1-Hydroxy-1,3-dihydro-benzo[c][1,2]oxaborol-5-yloxy)-phenyl]-(4-methyl-piperazin-1-yl)-methanone]", "values": [
      {"measurement": "pIC50", "setting": "IFN-γ", "value": "< 5.00"},
      {"measurement": "pIC50", "setting": "IL-5", "value": "< 5.00"},
      {"measurement": "pIC50", "setting": "IL-2", "value": "< 5.00"},
      {"measurement": "pIC50", "setting": "TNF-α", "value": "< 5.00"},
      {"measurement": "pIC50", "setting": "IL-10", "value": "< 5.00"}
    ]},
    {"smiles": "N#Cc1ccc(Oc2ccc3c(c2)COB3O)c(OCC2CC2)c1", "note": "[D134, 3-(cyclopropylmethoxy)-4-(1-hydroxy-1,3-dihydrobenzo[c][1,2]oxaborol-5-yloxy)benzonitrile]", "values": [
      {"measurement": "pIC50", "setting": "[1]", "value": "> 6.00"},
      {"measurement": "pIC50", "setting": "TNF-α", "value": "> 6.00"}
    ]},
    {"smiles": "N#Cc1ccc(Oc2ccc3c(c2)COB3O)c(C=O)c1", "note": "[D23, 5-(4-Cyano-2-formylphenoxy)-1,3-dihydro-1-hydroxy-2,1-benzoxaborole]", "values": [
      {"measurement": "pIC50", "setting": "TNF-α", "value": "5.00 to 5.40"}
    ]},
    {"smiles": "CC(=O)N1CCN(C(=O)c2ccc(Oc3ccc4c(c3)COB4O)cc2)CC1", "note": "[D80, 1-{4-[4-(1-Hydroxy-1,3-dihydro-benzo[c][1,2]oxaborol-5-yloxy)-benzoyl]-piperazin-1-yl}-ethanone]", "values": [
      {"measurement": "pIC50", "setting": "IFN-γ", "value": "< 5.00"},
      {"measurement": "pIC50", "setting": "IL-5", "value": "< 5.00"},
      {"measurement": "pIC50", "setting": "IL-2", "value": "< 5.00"},
      {"measurement": "pIC50", "setting": "TNF-α", "value": "< 5.00"},
      {"measurement": "pIC50", "setting": "IL-10", "value": "< 5.00"}
    ]},
    {"smiles": "CN(C)CCOC(=O)c1ccc(Oc2ccc3c(c2)COB3O)cc1", "note": "[D75, 4-(1-Hydroxy-1,3-dihydro-benzo[c][1,2]oxaborol-5-yloxy)-benzoic acid 2-dimethylamino-ethyl ester]", "values": [
      {"measurement": "pIC50", "setting": "IFN-γ", "value": "5.00 to 5.40"},
      {"measurement": "pIC50", "setting": "IL-5", "value": "5.00 to 5.40"},
      {"measurement": "pIC50", "setting": "IL-2", "value": "5.40 to 6.00"},
      {"measurement": "pIC50", "setting": "TNF-α", "value": "5.40 to 6.00"},
      {"measurement": "pIC50", "setting": "IL-10", "value": "< 5.00"}
    ]},
    {"smiles": "NCc1ccc(Oc2ccc3c(c2)COB3O)nc1NCCO", "note": "[D117]", "values": [
      {"measurement": "pIC50", "setting": "IFN-γ", "value": "< 5.00"},
      {"measurement": "pIC50", "setting": "IL-5", "value": "5.40 to 6.00"},
      {"measurement": "pIC50", "setting": "IL-2", "value": "5.40 to 6.00"},
      {"measurement": "pIC50", "setting": "TNF-α", "value": "5.40 to 6.00"},
      {"measurement": "pIC50", "setting": "IL-10", "value": "< 5.00"}
    ]},
    {"smiles": "N#Cc1cc(CNC=O)ccc1Oc1ccc2c(c1)COB2O", "note": "[D137, 5-[2-Cyano-4-(formylaminomethyl)phenoxy]-1,3-dihydro-1-hydroxy-2,1-benzoxaborole]", "values": [
      {"measurement": "inhibition at 10 µM", "setting": "IFN-γ", "value": "60 to 90", "unit": "%"},
      {"measurement": "inhibition at 10 µM", "setting": "IL-5", "value": "30 to 60", "unit": "%"},
      {"measurement": "inhibition at 10 µM", "setting": "IL-2", "value": "60 to 90", "unit": "%"},
      {"measurement": "pIC50", "setting": "TNF-α", "value": "5.40 to 6.00"},
      {"measurement": "inhibition at 10 µM", "setting": "IL-10", "value": "30 to 60", "unit": "%"}
    ]},
    {"smiles": "CC(C)COc1nc(Oc2ccc3c(c2)COB3O)ccc1C#N", "note": "[D136, 6-(1-Hydroxy-1,3-dihydro-benzo[c][1,2]oxaborol-5-yloxy)-2-isobutoxy-nicotinonitrile]", "values": [
      {"measurement": "pIC50", "setting": "[1]", "value": "> 6.00"},
      {"measurement": "pIC50", "setting": "TNF-α", "value": "> 6.00"}
    ]},
    {"smiles": "CCOC(=O)c1ccc(Oc2ccc3c(c2)COB3O)c(O)c1", "note": "[D19, 5-(4-Ethoxycarbonyl-2-hydroxyphenoxy)-1,3-dihydro-1-hydroxy-2,1-benzoxaborole]", "values": [
      {"measurement": "pIC50", "setting": "[1]", "value": "> 6.00"},
      {"measurement": "pIC50", "setting": "IFN-γ", "value": "5.40 to 6.00"},
      {"measurement": "pIC50", "setting": "IL-2", "value": "5.40 to 6.00"},
      {"measurement": "pIC50", "setting": "TNF-α", "value": "5.40 to 6.00"}
    ]},
    {"smiles": "N#Cc1ccc(Oc2ccc3c(c2)COB3O)c(OCC(=O)O)c1", "note": "[D17, 5-[2-(Carboxymethoxy)-4-cyanophenoxy]-1,3-dihydro-1-hydroxy-2,1-benzoxaborole]", "values": [
      {"measurement": "pIC50", "setting": "[1]", "value": "> 6.00"},
      {"measurement": "pIC50", "setting": "IFN-γ", "value": "< 5.00"},
      {"measurement": "pIC50", "setting": "IL-2", "value": "< 5.00"},
      {"measurement": "pIC50", "setting": "TNF-α", "value": "5.00 to 5.40"}
    ]}
  ]
}
